{"source": "patent US11419869B2", "about": "“Dosage forms and regimens for amino acid compounds” (Pliant Therapeutics, Inc., priority 2019, dated 2022)", "key": {"[1]": {"test_system": "IPF-derived lung fibroblasts", "test": "cell adhesion in IPF-derived lung fibroblasts (FIG. 3B)", "assay_type": "cell-based"}, "[2]": {"molecular_target": "recombinant human integrin αvβ6 (Homo sapiens (Human), UniProt P06756+P18564)", "sequence (P06756 31-992)": "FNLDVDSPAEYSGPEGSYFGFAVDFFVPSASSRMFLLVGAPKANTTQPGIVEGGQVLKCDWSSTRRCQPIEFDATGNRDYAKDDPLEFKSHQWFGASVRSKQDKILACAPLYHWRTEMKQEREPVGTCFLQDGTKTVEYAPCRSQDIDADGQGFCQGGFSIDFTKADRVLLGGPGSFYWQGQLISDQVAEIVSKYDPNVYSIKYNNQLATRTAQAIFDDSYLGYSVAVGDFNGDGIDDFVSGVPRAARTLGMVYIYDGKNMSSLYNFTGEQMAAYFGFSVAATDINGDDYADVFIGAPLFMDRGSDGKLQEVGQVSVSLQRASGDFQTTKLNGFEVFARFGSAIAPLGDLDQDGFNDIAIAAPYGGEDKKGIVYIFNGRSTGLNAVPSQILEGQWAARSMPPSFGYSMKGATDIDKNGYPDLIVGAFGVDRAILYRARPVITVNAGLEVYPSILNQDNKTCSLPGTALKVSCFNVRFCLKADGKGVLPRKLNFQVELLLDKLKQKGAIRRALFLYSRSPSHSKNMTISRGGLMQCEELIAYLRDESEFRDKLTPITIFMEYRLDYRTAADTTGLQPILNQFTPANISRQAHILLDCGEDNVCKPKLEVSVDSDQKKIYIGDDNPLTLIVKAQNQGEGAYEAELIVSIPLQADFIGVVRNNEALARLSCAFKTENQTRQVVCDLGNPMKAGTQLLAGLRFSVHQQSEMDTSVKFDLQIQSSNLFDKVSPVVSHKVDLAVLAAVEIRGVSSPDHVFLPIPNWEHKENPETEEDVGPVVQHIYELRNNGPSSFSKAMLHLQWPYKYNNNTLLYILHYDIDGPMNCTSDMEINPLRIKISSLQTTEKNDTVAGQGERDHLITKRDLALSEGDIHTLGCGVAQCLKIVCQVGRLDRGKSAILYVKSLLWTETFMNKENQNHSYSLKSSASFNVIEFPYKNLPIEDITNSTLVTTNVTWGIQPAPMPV", "sequence (P18564 22-707)": "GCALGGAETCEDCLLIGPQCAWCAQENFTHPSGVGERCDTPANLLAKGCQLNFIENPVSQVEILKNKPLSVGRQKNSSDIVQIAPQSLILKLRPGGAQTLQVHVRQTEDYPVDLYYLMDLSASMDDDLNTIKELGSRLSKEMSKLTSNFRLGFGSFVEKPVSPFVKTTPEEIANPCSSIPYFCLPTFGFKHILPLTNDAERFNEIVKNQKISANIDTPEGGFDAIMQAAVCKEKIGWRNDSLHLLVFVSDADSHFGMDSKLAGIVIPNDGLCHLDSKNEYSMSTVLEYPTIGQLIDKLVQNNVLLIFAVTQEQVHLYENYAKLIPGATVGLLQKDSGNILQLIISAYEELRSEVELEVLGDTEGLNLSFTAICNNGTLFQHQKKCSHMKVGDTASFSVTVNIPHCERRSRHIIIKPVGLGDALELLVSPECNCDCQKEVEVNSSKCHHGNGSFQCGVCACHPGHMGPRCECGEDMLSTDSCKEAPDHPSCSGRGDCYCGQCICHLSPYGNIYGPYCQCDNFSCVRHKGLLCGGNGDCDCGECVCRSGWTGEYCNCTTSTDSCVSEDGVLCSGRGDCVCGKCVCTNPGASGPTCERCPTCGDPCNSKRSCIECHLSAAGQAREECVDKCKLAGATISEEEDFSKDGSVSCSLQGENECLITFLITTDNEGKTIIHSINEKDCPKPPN", "test": "Solid Phase Integrin αvβ6 Binding Assay (Examples B1, B2)", "settings": "TGFβ1 LAP ligand, values given in four ranges, read-out: αvβ6 Inhibition IC50 (nM)-range", "procedure,_shortened": "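Plates coated with recombinant human αvβ6 (2 μg/mL) compete compound against recombinant TGFβ1 LAP (0.67 μg/mL) in TBS binding buffer with 0.5 mM MnCl2, 2 h at 25 °C. Bound LAP detected with biotin-anti-hLAP and peroxidase-streptavidin; IC50 by four-parameter logistic regression.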"}, "lung Col1a1 expression": {"test_system": "lung Col1a1 expression", "test": "Precision cut lung slices, mice under chronic bleomycin exposure (Example B9)", "assay_type": "cell-based", "settings": "7 days culture, normalized to DMSO, FIG. 5B", "method": "Mice (C57BL/6) were administered 3 U/kg of bleomycin (Teva Pharmaceuticals; North Wales, Pa.) on Day 0 and 1 U/kg of bleomycin on days 14, 28, 42 and 56 via oropharyngeal aspiration while under anesthesia. At day 70, 14 days after the final bleomycin insult, precision cut lung slices were obtained. Following euthanization, 2% low gelling temp agarose was injected into the mouse lungs via the trachea. […] The lobes were then subjected to precision slicing to obtain samples for culture using a microtome (Compresstome VF-300-0Z, Precisionary; Greenville, N.C.). Individual slices were distributed in a multiwell culture plate and cultured for 7 days under control (DMSO) and test compound conditions. The viability of the slices over the course of culturing was confirmed by WST-1 assay of mitochondrial activity.\nDuring the culture period, slices in the control group were treated with DMSO and slices in the test group were treated with a DMSO solution of one of: the selective antibody αvβ6 inhibitor 3G9; the αvβ1-selective small molecule inhibitor; a combination of the selective antibody αvβ6 inhibitor 3G9 and the αvβ1-selective small molecule inhibitor; compound 5; and the small molecule ALK5 inhibitor. The selective αvβ1 and αvβ6 integrin inhibitors were analyzed at ≥their respective IC90 concentrations for inhibition of TGF-beta activation. […]"}}, "data": [{"smiles": "COCCN(CCCCc1ccc2c(n1)NCCC2)CC[C@H](Nc1ncnc2ccccc12)C(=O)O", "note": "[Compound 5, (S)-4-((2-methoxyethyl) (4-(5,6,7,8-tetrahydro-1,8-naphthyridin-2-yl)butyl)amino)-2-(quinazolin-4-ylamino) butanoic acid]", "values": [{"measurement": "cell adhesion in the IPF-derived lung fibroblasts", "setting": "[1]", "result": "substantially inhibited"}, {"measurement": "IC50", "setting": "[2]", "result": "< 50", "unit": "nM"}, {"measurement": "lung Col1a1 expression", "setting": "lung Col1a1 expression", "result": "decreased lung Col1a1 expression substantially"}]}]}
